In general, IC50 refers to the point on the concentration scale where inhibition reaches its midpoint. Read a low IC50 as greater potency in that assay.

The text below walks through data of publication PMC6068282, “In Silico Discovery of Plant-Origin Natural Product Inhibitors of Tumor Necrosis Factor (TNF) and Receptor Activator of NF-κB Ligand (RANKL)” (Frontiers in Pharmacology, 2018).

For this test, the target named is T1, TNF / human TNF (TNF/TNFR1 ELISA) (Homo sapiens, UniProt P01375).
T1 construct: recombinant human TNF (soluble; biologically active homotrimer); with Tumor necrosis factor receptor superfamily member 1A
T1 sequence (P01375 77-233): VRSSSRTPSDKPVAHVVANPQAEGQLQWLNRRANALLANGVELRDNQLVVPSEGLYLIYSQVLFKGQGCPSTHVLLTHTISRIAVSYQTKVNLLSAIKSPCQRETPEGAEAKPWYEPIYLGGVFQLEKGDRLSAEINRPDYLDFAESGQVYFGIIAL
Description: ELISA, TNF binding to TNFR1. Background: ELISA stands for enzyme-linked immunosorbent assay.

Structures are written as SMILES.

Consider `C[C@@H]1O[C@@H](Oc2c(-c3ccc(O)cc3)oc3cc(O)cc(O)c3c2=O)[C@H](O[C@@H]2O[C@H](COC(=O)/C=C/c3ccc(O)cc3)[C@@H](O)[C@H](O)[C@H]2O)[C@H](O)[C@H]1O` [A25, [(2R,3S,4S,5R,6S)-6-[(2S,3R,4R,5R,6S)-2-[5,7-dihydroxy-2-(4-hydroxyphenyl)-4-oxochromen-3-yl]oxy-4,5-dihydroxy-6-methyloxan-3-yl]oxy-3,4,5-trihydroxyoxan-2-yl]methyl(E)-3-(4-hydroxyphenyl)prop-2-enoate], for which the IC50 turned out to be 4.1 ± 1.7 µM.
The molecule `Oc1ccc([C@@H]2c3c(O)cc4c(c3[C@H]3[C@H](c5ccc(O)cc5)c5c(O)cc6c(c5[C@@H]23)[C@@H](c2cc(O)cc(O)c2)[C@H](c2ccc(O)cc2)O6)[C@@H](c2cc(O)cc(O)c2)[C@H](c2ccc(O)cc2)O4)cc1` [A11, (1R,2R,6R,6aR,7R,8R,12R,12aR)-1,7-Bis(3,5-dihydroxyphenyl)-2,6,8,12-tetrakis(4-hydroxyphenyl)-1,2,6,6a,7,8,12,12a-octahydrofuro[2″,3″:6′,7′]indeno[1′,2′:2,3]indeno [5,4-b]furan-5,11-diol] returned an IC50 of 3.3 ± 0.9 µM.
